Patent US4182896A, “Indane derivatives” (Societe Hexachimie, priority 1974, dated 1980)
Structures can show the parent of a compound that is named as a salt.

Key:
[1] = system: SPF male rats, OFA strain; test: Anti-inflammatory activity: paw swelling after subcutaneous plantar injection of carraghenine, oral administration; format: in vivo; conditions: for ED50 / ED50 (50% effective dose), anti-inflammatory: at the moment of greatest swelling of the controls; for ED50: read-out: ED50 (50% effective dose), anti-inflammatory; for inhibition in vivo at 512 mg/kg: 512 mg/kg oral; for percentage reduction in the inflammation / ED50 (50% effective dose), anti-inflammatory: rat; for ED50 (50% effective dose), anti-inflammatory: oral
Experimental: Anti-inflammatory activity
The products to be tested are administered orally to batches of 12 SPF male rats, OFA strain, weighing 120-130 g, 2 hours and 30 minutes (1/2 dose each time) before the subcutaneous plantar injection of 0.05 ml of a 1% strength solution of carraghenine. The volume of the back paw which received the phlogogenic agent is measured at regular intervals. The 50% effective dose is calculated at the moment of greatest swelling of the controls.
The results are given in Tables I to IV below, in which the percentage reduction in the inflammation is noted.

[2] = system: male mice (SPF1, OF1 strain); test: Analgesic activity: inhibition of pain reactions (abdominal twistings) after intraperitoneal phenylbenzoquinone, oral administration; format: in vivo; conditions: for inhibition in vivo at 64 mg/kg: 64 mg/kg oral; for inhibition in vivo at 256 mg/kg: 256 mg/kg oral; for ED50: read-out: ED50 (50% effective dose), analgesic; for inhibition in vivo at 512 mg/kg: 512 mg/kg oral; for percentage inhibition of pain reactions / ED50 (50% effective dose), analgesic: mouse; for ED50 (50% effective dose), analgesic: oral; for inhibition in vivo at 4 mg/kg: 4 mg/kg oral
Experimental: The products tested are administered orally to batches of 6 male mice (SPF1, OF1 strain) weighing 19-20 g.
1 hour later, 0.3 ml of a 0.02% strength solution of phenylbenzoquinone is injected intraperitoneally into each mouse and, from the 5th to the 10th minute after the latter treatment, the number of pain reactions (abdominal twistings) is counted.
Table V to VIII below give the percentage inhibition of these reactions.

[3] = Rattus norvegicus, po, 64 mg/kg oral, carraghenine, read-out: percentage reduction in the inflammation
[4] = Rattus norvegicus, po, 128 mg/kg oral, carraghenine, read-out: percentage reduction in the inflammation
[5] = Rattus norvegicus, po, 256 mg/kg oral, carraghenine, read-out: percentage reduction in the inflammation
[6] = Mus musculus, po, 16 mg/kg oral, read-out: percentage inhibition of pain reactions
[7] = Mus musculus, po, 32 mg/kg oral, read-out: percentage inhibition of pain reactions
[8] = Mus musculus, po, read-out: percentage inhibition of pain reactions
[9] = Mus musculus, po, 128 mg/kg oral, read-out: percentage inhibition of pain reactions
[10] = Rattus norvegicus, po, 32 mg/kg oral, carraghenine, read-out: percentage reduction in the inflammation
[11] = Rattus norvegicus, po, 16 mg/kg oral, carraghenine, read-out: percentage reduction in the inflammation
[12] = Mus musculus, po, 8 mg/kg oral, read-out: percentage inhibition of pain reactions
[13] = Rattus norvegicus, po, carraghenine, read-out: percentage reduction in the inflammation

SMILES	inhibition in vivo at 64 mg/kg [1, 3] [%]	inhibition in vivo at 128 mg/kg [1, 4] [%]	inhibition in vivo at 256 mg/kg [1, 5] [%]	ED50 ([1]; Rattus norvegicus, po) [mg/kg]	inhibition in vivo at 16 mg/kg [2, 6] [%]	inhibition in vivo at 32 mg/kg [2, 7] [%]	inhibition in vivo at 64 mg/kg [2, 8] [%]	inhibition in vivo at 128 mg/kg [2, 9] [%]	inhibition in vivo at 256 mg/kg [2, 8] [%]	ED50 ([2]; Mus musculus, po) [mg/kg]	inhibition in vivo at 32 mg/kg [1, 10] [%]	inhibition in vivo at 16 mg/kg [1, 11] [%]	other results
CC1CC(C)c2cc(CC(=O)O)ccc21 (centres unmarked) [Example 1, [1,3-Dimethyl-indanyl-(5)]-acetic acid]	15	42	88	130	25	28	67	89	94	43	–	–	–
CC1CC(C)c2cc(CC(=O)O)c(Cl)cc21 (centres unmarked) [Example 3, [6-Chloro-1,3-dimethyl-indanyl-(5)]-acetic acid]	24	36	56	200	33	51	66	66	94	33	–	–	–
CC(C)C1Cc2ccc(CC(=O)O)cc2C1 (centres unmarked) [Example 4, [2-Isopropyl-indanyl-(5)]-acetic acid]	19	47	80	120	6	33	70	99	–	40	10	–	–
O=C(O)Cc1ccc2c(c1)CCC2C1CCCCC1 (centres unmarked) [Example 5, [1-Cyclohexyl-indanyl-(5)]-acetic acid]	–	–	–	–	–	–	32	–	58	~150	–	–	–
CC(C(=O)O)c1ccc2c(c1)CC(C(C)C)C2 (centres unmarked) [Example 7, 2-Methyl-[2-Isopropyl-indanyl-(5)]-acetic acid]	73	75	–	22	61	96	–	–	–	14	61	43	inhibition in vivo at 8 mg/kg ([1]; Rattus norvegicus, po, 8 mg/kg oral, carraghenine, read-out: percentage reduction in the inflammation): 29%; inhibition in vivo at 8 mg/kg [2, 12]: 17%
CC(C)C1Cc2ccc(CC(=O)OCCN3CCOCC3)cc2C1 (centres unmarked) [Example 8, Hydrochloride of the morpholino-ethyl ester of [2-isopropyl-indanyl-(5)]-acetic acid]	23	52	62	150	–	10	67	73	90	70	17	–	–
CC(C(=O)OCCN1CCOCC1)c1ccc2c(c1)CC(C(C)C)C2 (centres unmarked) [Example 9, Morpholino-ethyl ester of 2-methyl-[2-isopropyl-indanyl-(5)]-acetic acid]	80	–	–	17	–	28	26	79	97	78	68	47	–
O=C(O)Cc1ccc2c(c1)CC(C1CCCCC1)C2 (centres unmarked) [Example 11, [2-Cyclohexyl-indanyl-(5)]-acetic acid]	8	13	13	> 512	–	15	29	58	59	140	4	–	inhibition in vivo at 512 mg/kg [1, 13]: 32%; inhibition in vivo at 512 mg/kg [2, 8]: 83%
CC1Cc2ccc(CC(=O)O)cc2C1 (centres unmarked) [Example 12, [2-Methyl-indanyl-(5)]-acetic acid]	49	71	80	70	–	9	20	46	67	175	23	15	inhibition in vivo at 512 mg/kg [2, 8]: 75%
CC1(C)Cc2ccc(CC(=O)O)cc2C1 [Example 13, [2,2-Dimethyl-indanyl-(5)]-acetic acid]	37	47	51	200	15	30	71	83	–	46	29	23	–
CC(C(=O)O)c1ccc2c(c1)CC(C1CCCCC1)C2 (centres unmarked) [Example 14, 2-Methyl-[2-cyclohexyl-indanyl-(5)]-acetic acid]	16	17	31	> 512	–	20	35	52	62	110	5	11	inhibition in vivo at 512 mg/kg [1, 13]: 34%; inhibition in vivo at 512 mg/kg [2, 8]: 93%
CC(C(=O)O)c1ccc2c(c1)CC(C)(C)C2 (centres unmarked) [Example 16, 2-Methyl-[2,2-dimethyl-indanyl-(5)]-acetic acid]	37	61	94	73	30	77	96	–	–	19	20	4	inhibition in vivo at 8 mg/kg [2, 12]: 13%
CCC(C(=O)O)c1ccc2c(c1)CC(C(C)C)C2 (centres unmarked) [Example 17, 2-Ethyl-[2-isopropyl-indanyl-(5)]-acetic acid]	–	–	–	–	–	–	28	–	83	–	–	13	percentage reduction in the inflammation ([1]; 32 mg/kg oral, carraghenine): 24%; percentage reduction in the inflammation ([1]; 64 mg/kg oral, carraghenine): 30%; percentage reduction in the inflammation ([1]; 128 mg/kg oral, carraghenine): 38%; percentage reduction in the inflammation ([1]; 256 mg/kg oral, carraghenine): 43%; ED50 (50% effective dose), anti-inflammatory [1]: > 256 mg/kg; percentage inhibition of pain reactions ([2]; 128 mg/kg oral): 70%; inhibition in vivo at 512 mg/kg [2, 8]: 100%; ED50 (50% effective dose), analgesic [2]: 100 mg/kg
CCC1Cc2ccc(C(C)C(=O)O)cc2C1 (centres unmarked) [Example 18, 2-Methyl-[2-ethyl-indanyl-(5)]-acetic acid]	61	66	77	36	75	95	–	–	–	6.5	54	31	inhibition in vivo at 2 mg/kg ([2]; Mus musculus, po, 2 mg/kg oral, read-out: percentage inhibition of pain reactions): 18%; inhibition in vivo at 4 mg/kg [2, 8]: 27%; inhibition in vivo at 8 mg/kg [2, 12]: 58%
CC(C(=O)O)c1ccc2c(c1)CC(C(C)C)C2 (centres unmarked) [Example 19, Dimethylaminoethanol salt of 2-methyl-[2-isopropyl-indanyl-(5)]-acetic acid]	–	–	82	–	–	–	96	–	–	–	–	–	percentage reduction in the inflammation ([1]; 8 mg/kg oral, carraghenine): 20%; percentage reduction in the inflammation ([1]; 16 mg/kg oral, carraghenine): 44%; percentage reduction in the inflammation ([1]; 32 mg/kg oral, carraghenine): 48%; percentage reduction in the inflammation ([1]; 64 mg/kg oral, carraghenine): 63%; percentage reduction in the inflammation ([1]; 128 mg/kg oral, carraghenine): 67%; inhibition in vivo at 4 mg/kg ([1]; Rattus norvegicus, po, 4 mg/kg oral, carraghenine, read-out: percentage reduction in the inflammation): 25%; ED50 (50% effective dose), anti-inflammatory [1]: 30 mg/kg; percentage inhibition of pain reactions ([2]; 8 mg/kg oral): 31%; percentage inhibition of pain reactions ([2]; 16 mg/kg oral): 54%; percentage inhibition of pain reactions ([2]; 32 mg/kg oral): 82%; inhibition in vivo at 4 mg/kg [2, 8]: 5%; ED50 (50% effective dose), analgesic [2]: 14 mg/kg
